Read-outs that look alike come from different tables or passages of the source. Marks after values point to notes of the source that are not given here.
Assays:
[1] = test system: extensive stage small cell lung cancer; conditions: IMpower133 treatment arm, ITT, with chemotherapy; cited from earlier work
[2] = test system: extensive stage small cell lung cancer; conditions: CASPIAN treatment arm, ITT, with chemotherapy; cited from earlier work
[3] = test system: metastatic colorectal cancer; assay: IMPALA phase III trial (NCT02077868), progression-free survival; format: in vivo, human
Excerpt: An international, multicentre, open-label phase III trial conducted on 549 metastatic colorectal cancer patients in 8 EU countries. […] After progression, patients started re-induction therapy, with those in the experimental arm continuing to receive lefitolimod in addition.

[4] = test system: extensive stage small cell lung cancer; assay: IMPULSE phase II trial (NCT02200081), switch maintenance vs continuation maintenance, survival; format: in vivo, human
Excerpt: An international, multicentre, open-label phase II trial conducted on 102 extensive stage small cell lung cancer after platinum based first line therapy patients. Patients who had received four cycles of first line induction chemotherapy (platinum-based) were randomized to receive either combination lefitolimod maintenance therapy, or local standard of care (control). After progression, patients received second line therapy.
The phase II IMPULSE study explored the benefit in OS of an immunotherapeutic switch maintenance therapy of ES-SCLC by the TLR9 agonist lefitolimod (dSLIM-30L1). In comparison to the various local standards of care (SoC), typically carboplatin plus etoposide, or cisplatin plus etoposide. […] A combinatorial post hoc analyses was performed of all accessible immunological data and relevant clinical parameters of the IMPLUSE study. Additionally, in order to determine in what conditions adaptive or innate immune stimulation may enhance chemotherapy outcomes, published mPFS and mOS data from the respective treatment and control arms for chemotherapy immunomodulation maintenance studies utilizing PD-L1 inhibitor-antibodies were incorporated, comparing the use of checkpoint inhibitors with the TLR9 agonist used in IMPULSE.
All lung cancer trials used (IMPULSE, IMpower133, CASPIAN, Keynote-604, and EA5161) are “maintenance” trials, wherein an immune induction treatment, a set of chemotherapy cycles, is applied to initiate anti-tumour responses (as defined by RECIST guidelines), followed by maintenance therapy until tumour progress. IMpower133, CASPIAN, Keynote-604, and EA5161 are “continuation maintenance” trials, whereas IMPULSE is a “switch maintenance” trial. In the four continuation maintenance trials, the immunomodulatory product (IMP), i.e., the respective […] checkpoint inhibitors (CPI) atezolizumab, durvalumab, pembrolizumab, or nivolumab, are present during induction chemotherapy and in the maintenance phase. In the switch maintenance trial IMPULSE, the IMP lefitolimod is not used during induction chemotherapy but introduced (“switched” to) in the maintenance phase of the trial (FIG. 1). Thus, for comparison of IMPULSE PFS and OS data with the other studies, IMPULSE mPFS1 and mOS1 were factored from the start of induction chemotherapy. Therefore, for all following analyses, the respective mOS1 values of IMPULSE are used.

[5] = test system: Regulatory T cells (% of CD4+ T cells); assay: Regulatory T cells in blood of IMPULSE patients, flow cytometry; format: in vivo, human
[6] = test system: extensive stage small cell lung cancer; conditions: EA5161 treatment arm, ITT, with chemotherapy; cited from earlier work
[7] = test system: extensive stage small cell lung cancer; conditions: Keynote-604 treatment arm, ITT, with chemotherapy; cited from earlier work
[8] = Baseline, end of 4th cycle of induction PE chemotherapy
[9] = Visit 2, days 118-125 from start of induction PE chemotherapy
[10] = Visit 3, days 146-153 from start of induction PE chemotherapy
[11] = Visit 4, days 188-195 from start of induction PE chemotherapy

## Atezolizumab: PD-L1 inhibiting antibody (Roche AG; CAS No. 1380723-44-3), IMpower133 trial
[1]
  mOS treatment: 12.3 m

## Durvalumab: PD-L1 inhibiting antibody (Astra Zeneca, CAS No. 1428935-60-7), CASPIAN trial
[2]
  mOS treatment: 13.0 m

## Lefitolimod
[3]; patients receiving re-induction treatment followed by cycles of chemotherapy and lefitolimod
  mPFS compared to control: significantly superior
[3]; switch-maintenance therapy
  mPFS compared to the control arm: inferior
[4]; IMPULSE treatment arm, ITT, mOS1 calculated from start of induction chemotherapy
  mOS treatment: 12.4* m
[4]; OS1, 5 cycles vs 4 cycles of PE chemotherapy followed by TLR9 agonist (FIG. 2)
  gain in mOS: 2.3 m
[4]; applied subsequent to platinum-based chemotherapy rather than in combination, IMPULSE compared to IMPALA
  efficacy in terms of mOS: more efficacious
[4]; four qw3 PE cycles followed by a 5th cycle with PE in week 1 and TLR9 agonist in weeks 2 and 3 (FIG. 2)
  mOS improved by: 2.3 months
[4]; full analysis set (FAS)
  PFS1: 6.1 months
[4]; patient subgroup (FIG. 6)
  mOS1: 10.7 months
[4]; patient subgroup with PFS threshold >6.2 months (FIG. 6)
  mOS1: 17.1 months
[4]; switch maintenance therapy, all patients
  benefit by mPFS or mOS compared to local standards of care: No additional benefit
[4]; switch maintenance therapy, subgroups
  median OS in certain subgroups of patients: strong median OS improvements
[5]; [8]
  Regulatory T cells, Max: 12.22 % of CD4+ T cells
  Regulatory T cells, Mean: 7.3905 % of CD4+ T cells
  Regulatory T cells, Median: 7.470 % of CD4+ T cells
  Regulatory T cells, Min: 4.19 % of CD4+ T cells
[5]; [9]
  Regulatory T cells, Max: 13.65 % of CD4+ T cells
  Regulatory T cells, Mean: 8.2827 % of CD4+ T cells
  Regulatory T cells, Median: 8.100 % of CD4+ T cells
  Regulatory T cells, Min: 4.44 % of CD4+ T cells
[5]; [10]
  Regulatory T cells, Max: 13.06 % of CD4+ T cells
  Regulatory T cells, Mean: 8.7502 % of CD4+ T cells
  Regulatory T cells, Median: 8.905 % of CD4+ T cells
  Regulatory T cells, Min: 4.27 % of CD4+ T cells
[5]; [11]
  Regulatory T cells, Max: 16.33 % of CD4+ T cells
  Regulatory T cells, Mean: 9.5175 % of CD4+ T cells
  Regulatory T cells, Median: 9.205 % of CD4+ T cells
  Regulatory T cells, Min: 5.82 % of CD4+ T cells
[5]; over duration of treatment, IMPULSE
  fraction of regulatory T cells (Treg): increases with duration

## Nivolumab: checkpoint inhibitor antibody (Bristol-Myers Squibb; CAS No 946414-94-4), EA5161 trial
[6]
  mOS treatment: 11.3 m

## Pembrolizumab: checkpoint inhibitor antibody (Merck Inc.; CAS No. 1374853-91-4), Keynote-604 trial
[7]
  mOS treatment: 10.8 m

Reference: patent US20240285671A1, “SEQUENTIAL INNATE AND ADAPTIVE IMMUNE MODULATION FOR CANCER TREATMENT” (Gentechnologiestiftung- Dr. Georg und Ingeburg Scheel …, priority 2021, published 2024)
